PubChem BioAssay AID179 (DTP/NCI, 2004)
Calls of active or inactive are those of the source.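 How the source made its calls: active means compounds giving half or more protection of infected cells from virus-caused growth loss, again on retest; inactive means the rest.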

System: CEM cells HIV-1 protection, formazan growth assay
Test: NCI AIDS Antiviral Assay
Conditions: for IC50: measured here: growth of uninfected CEM cells
How it was run: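 Steps: treat uninfected and HIV-1-infected human CEM cells at five drug levels; quantify growth by soluble formazan; retest any compound reaching 50% protection; classify actives from the retest.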

SMILES | EC50 | IC50 | outcome
CCC1CCN=C(Cn2cc(C)c(=O)[nH]c2=O)N1 (stereo unspecified) | > 200 µM | > 200 µM | –
Cn1cnc(/C=C/C#N)c1 | > 200 µM | > 200 µM | –
COc1cc(NC=C2C(=O)OC(C)(C)OC2=O)c(OC)c(C)c1OC | > 200 µM | > 200 µM | –
CC(C(=O)O)N(N=O)c1ccccc1 (stereo unspecified) | > 676 µM | > 676 µM | –
O=C1OC2(OC2c2ccccc2)c2ccccc21 (stereo unspecified) | > 200 µM | > 200 µM | –
Cc1cccc(C)c1NC(=O)/C(CC(=O)CC(c1ccccc1)c1c(O)c2ccccc2oc1=O)=N/O (stereo unspecified) | > 263 µM | 204 µM | –
CCO/C=N\C1=C(C#N)SC2=N/C(=C\c3ccco3)C(=O)N21 | – | – | inactive
Cc1ccc(NCC2(/N=C/c3ccccc3)OC(CO)C(O)C2O)cc1 (stereo unspecified) | > 263 µM | 6.61 µM | –
CCOC(=O)C1C(c2ccc3c(c2)OCO3)c2c([nH][nH]c2=O)CC1(C)O (stereo unspecified) | > 200 µM | > 200 µM | –
NC(=O)c1cc(N(CCO)CCO)c([N+](=O)[O-])cc1[N+](=O)[O-] | > 200 µM | > 200 µM | –
CC(=O)Nc1ccc(S(=O)(=O)Nc2ccc([N+](=O)[O-])cc2)cc1 | > 200 µM | > 200 µM | inactive
O=S(=O)(O)c1cc(S(=O)(=O)O)c2c(N=Nc3ccc(N=Nc4ccccc4)cc3)c(O)ccc2c1 | > 100 µM | > 100 µM | –
COc1cccc(/C=N/[N-]C(N)=O)c1[O-].[Ni+2].[OH3+].c1ccc(-c2ccccn2)nc1 | – | – | inactive
N#Cc1cnc(-n2[nH]c3c(c2=O)CCCC3)[nH]c1=O | – | – | inactive
CCc1cccc(CC)c1NC(=O)C(=O)Cc1nc2ccccc2o1 | > 537 µM | > 537 µM | –
O=C1/C=C/C(=O)OCCCC(=O)/C=C/C(=O)OCCC1 | – | – | inactive
COc1ccc(NC(=O)CSc2nnc(Cc3ccccc3)o2)cc1 | > 100 µM | 23.4 µM | –
O=C1CCC(=O)N1N1C(=O)CCC1=O | > 200 µM | > 200 µM | –
O=c1[nH]c(=O)n(C2CC(O)C(CO)O2)cc1C#Cc1ccc(F)cc1 (stereo unspecified) | > 724 µM | > 724 µM | –
CCOC(=O)C1N(S(=O)(=O)c2ccc(C)cc2)CCC12C(c1ccc(OC)cc1)NC1CCCCC12 (stereo unspecified) | – | – | inactive
ClC/C=C\C[N+]12CN3CN(CN(C3)C1)C2 | > 200 µM | 24 µM | –
COC(=O)C1CC23C=CCN4CC(C2C)C2(c5ccccc5NC12)C43 (stereo unspecified) | > 200 µM | 112 µM | –

SMILES | EC50 | IC50 | outcome
COc1ccc(NC(=O)CC(=O)N2N=C(N(CCC#N)c3cccc(C)c3)CC2c2ccccc2)cc1 (stereo unspecified) | > 100 µM | > 100 µM | –
COc1ccn(CC(C)=O)c(=O)n1 | > 200 µM | > 200 µM | –
CN(C)C(=S)SSSSC(=S)N(C)C | > 2 µM | 0.525 µM | –
COC(=O)[C@H](C)N(C)C(=O)[C@H](C)N1[C@@H](c2ccccc2)COC1(C)C | > 200 µM | > 200 µM | –
[O-][n+]1c2ccccc2[n+]([O-])c2c3ccccc3[nH]c21 | > 20.9 µM | > 20.9 µM | –
O=C1C2CCC3C1C(C(=O)O)C(C(=O)O)C23 (stereo unspecified) | > 200 µM | > 200 µM | –
OCC1=C[C@@H](O)[C@@H]2C=CO[C@@H](OC3OC(CO)C(O)C(O)C3O)[C@H]12 (stereo partly specified) | > 724 µM | > 724 µM | –
NS(=O)(=O)c1nnc(/N=C(/CCC(=O)O)C(=O)O)s1 | > 200 µM | > 200 µM | –
O=C(O)CCc1ccc(NC(=O)CN(CCO)CCO)cc1 | > 200 µM | > 200 µM | –
CCOC(=O)CC1NCCc2cc(OC)c(OC)c([N+](=O)[O-])c21 (stereo unspecified) | – | – | inactive
CC(C)O[C@H]1N(C2CC(N=[N+]=[N-])C(CO)O2)C(=O)NC(=O)[C@]1(C)Cl (stereo partly specified) | > 200 µM | > 200 µM | –
CN(C)/N=N/c1nc2c(c(=O)n(C)c(=O)n2C)n1CC(O)CO (stereo unspecified) | > 200 µM | > 200 µM | –
CCCc1c(C(=O)OCC)[nH]c(-c2ccc(-c3[nH]c(C(=O)OCC)c(CCC)c3C(=O)OCC)o2)c1C(=O)OCC | > 4.79 µM | > 4.79 µM | –
O=S(=O)(SC(S(=O)(=O)c1ccccc1)S(=O)(=O)c1ccccc1)c1ccccc1 | > 537 µM | 355 µM | –
NC(Cc1ccc(CP(=O)(O)O)cc1)C(=O)O (stereo unspecified) | > 200 µM | > 200 µM | –
Oc1[nH]c2ccccc2c1N=Nc1nc(-c2ccc(Cl)c(Cl)c2)cs1 | > 200 µM | 40.7 µM | –
COC(=O)C(CCc1ccccc1I)C1=CCC2(CC1)OCCO2 (stereo unspecified) | > 200 µM | 38 µM | –
COc1ccc(/C=C2\CCC(C)C3=C2NC(=S)NC3c2ccc(OC)c(OC)c2)cc1OC (stereo unspecified) | > 200 µM | 11.2 µM | –
C=C1C2CC3CCC2C(OC(=O)c2ccccc2C(=O)O)C13 (stereo unspecified) | > 200 µM | > 200 µM | –
NC(N)=N/N=C/c1c[nH]c2ccccc12 | > 955 µM | 55 µM | –
O=C1C=CC(=O)c2c1ccc1c3ccccc3n(Cc3ccc([N+](=O)[O-])cc3)c21 | > 200 µM | 2.82 µM | –
COc1ccc(CCn2cnn3c(=O)c4ccccc4nc3c2=O)cc1OC | > 13.8 µM | > 13.8 µM | –

SMILES | EC50 | IC50 | outcome
CC(=O)n1c(=O)c2cc3c(=O)n(-c4cccc(C#N)c4)c(=O)c3cc2c1=O | – | – | inactive
Nc1nc2c(C(=O)O)c3ccc([N+](=O)[O-])cc3c(=O)n2c2ccccc12 | > 200 µM | 15.8 µM | –
O=S(=O)(Cc1ccccc1)c1nnc(S(=O)(=O)c2ccc(Cl)cc2)s1 | > 200 µM | 5.5 µM | –
O=c1[nH]c(Nc2cccc(CC(F)(F)F)c2)nc2nc[nH]c12 | > 200 µM | 110 µM | –
CC(=O)OCC1OC(n2cc(I)c(=O)[nH]c2=O)C(OC(C)=O)C(OC(C)=O)C1OC(C)=O (stereo unspecified) | > 437 µM | 282 µM | –
O=c1c2cc(Br)cc(Br)c2[nH]c(=S)n1-c1ccccc1 | > 316 µM | 126 µM | –
CN1C(=S)N2CCCCCCCC2c2c1nc(CCl)[nH]c2=O (stereo unspecified) | > 200 µM | 6.92 µM | –
O=C(Nc1ccc2c(O)cc(S(=O)(=O)O)cc2c1)Nc1ccc2c(O)c(N=Nc3ccc4cc(S(=O)(=O)O)ccc4c3)c(S(=O)(=O)O)cc2c1 | – | – | active
Cc1ccc(NC(=O)C2C(=O)C(=O)N(c3ccc(C)cc3)C2=O)cc1 (stereo unspecified) | > 15.5 µM | > 15.5 µM | –
CC12CCC(=O)N1c1cncnc1N2 (stereo unspecified) | > 1320 µM | > 1320 µM | –
COC(=O)N/N=C/c1oc(-c2ccccc2)c(-c2ccccc2)c1[N+](=O)[O-] | > 61.7 µM | > 61.7 µM | –
Clc1ccc(SCCSCCCCCCCCCCSCCSc2ccc(Cl)cc2)cc1 | > 9.55 µM | > 9.55 µM | –
CCOC(CN=c1nc(N(C)C)ss1)OCC | – | – | inactive
CCCCCCC(N)(CCCCCC)C(=O)Nn1c(C)ccc1C | > 200 µM | 16.2 µM | –
CC(=O)C(N)=NCc1ccccc1 | > 1410 µM | 1020 µM | –
COc1ccc(NC(=O)CC(=O)N2N=C(N(CCC#N)c3ccccc3Cl)CC2c2ccccc2)cc1 (stereo unspecified) | > 50.1 µM | > 50.1 µM | –
N#Cc1cc2c(cc1C#N)/C(=N\c1cccc(N)n1)N=C2Nc1cccc(N)n1 | > 200 µM | 4.07 µM | –
CCCCCCCCS(=O)(=O)O | > 200 µM | > 200 µM | –
CC(NC(=O)C(C)C(=O)NCc1ccc(C(F)(F)F)cc1)C(N)=O (stereo unspecified) | > 200 µM | 115 µM | –
Cc1c(Cl)cccc1NC(=O)/C(Cl)=C(\Cl)C(=O)O | – | – | inactive
N#CC(c1ccc(Cl)cc1)c1cccc(C(C#N)c2ccc(Cl)cc2)n1 (stereo unspecified) | > 661 µM | > 661 µM | –
O=C1Nc2cnc(Cl)nc2Nc2cc(Cl)ccc21 | > 200 µM | > 200 µM | –

SMILES | EC50 | IC50 | outcome
Cc1nn(-c2ccccc2)c(-c2ccccc2[N+](=O)[O-])c1CC#N | – | – | inactive
Cc1nn(C(=O)c2ccc(Cl)cc2)c2c1C(c1ccco1)SC(N)=N2 (stereo unspecified) | 170 µM | > 200 µM | –
CCCCCCC[CH2][Sn]1([CH2]CCCCCCC)[O]C(=O)c2cccnc2[S]1 | 0.794 µM | 91.2 µM | –
CC1=C(C)C2(C#N)C(=O)N3C(=NC(c4ccco4)NC3c3ccco3)C2(C#N)C(c2ccco2)N1 (stereo unspecified) | > 200 µM | > 200 µM | –
O=[N+]([O-])/C(C(Cl)=C(Cl)Cl)=C(/Cl)Sc1ccccc1 | > 200 µM | 1.23 µM | –
Cc1nc(N)c(N2CCN(S(=O)(=O)N(Cc3ccccc3)Cc3ccccc3)CC2)c(=O)[nH]1 | > 195 µM | 120 µM | –
CC(CCC[C@H](C)CO)[C@H]1[C@@H](O)C(O)C2[C@@H]3C[C@@H](O)C4(O)C[C@@H](O)CC[C@]4(C)C3CC[C@@]21C (stereo partly specified) | > 200 µM | 107 µM | –
OCC1OC(n2cnc3c2NC=NCC3O)C(Cl)C1O (stereo unspecified) | > 295 µM | > 295 µM | –
N#CC(C#N)=C1/C(=C/C=C/C=C/C=C/c2ccc(N3CCCCC3)s2)S(=O)(=O)c2ccccc21 | > 200 µM | 93.3 µM | –
c1ccc(Cn2cc(CCc3ccncc3)c3ccccc32)cc1 | > 200 µM | 28.2 µM | –
COc1ccc2nc3ccccc3c(NCCCCCN(CCCl)CCCl)c2c1 | > 245 µM | 0.282 µM | –
CCCC1C2C(=O)N(c3ccccc3)C(=O)C2ON1c1ccccc1 (stereo unspecified) | > 40.7 µM | > 40.7 µM | –
CCSc1nc(=S)n(-c2ccccc2)c(C)c1C(C)=O | > 200 µM | > 200 µM | –
C=C1CC(C)(COc2ccc3c(C)c(Cl)c(=O)oc3c2)OC1=O (stereo unspecified) | > 2 µM | 0.617 µM | –
CC#CCCC1CCCCN(C(=O)OC(C)(C)C)C1OCC (stereo unspecified) | > 115 µM | 58.9 µM | –
Cc1cccc(/C(Br)=C2/OC(=O)c3ccccc32)c1 | > 200 µM | 182 µM | –
O=C1OC2(c3ccc(O)cc3Oc3cc(O)ccc32)c2c1c(-c1ccccc1)c(-c1ccccc1)c(-c1ccccc1)c2-c1ccccc1 | 10 µM | 16.6 µM | –
Cc1nnc(N)nc1C/C=C/C(C)Sc1ccc(Cl)cc1 (stereo unspecified) | > 200 µM | 6.61 µM | –
c1cc(-c2cn3c(n2)SCC3)ccn1 | > 437 µM | 182 µM | –
COC(=O)[C@]1(NC(=O)c2ccccc2)C[C@H]1C=O | > 200 µM | 170 µM | –
CC(=O)Nc1ccc(/C=C2\SC(=S)N(C=C(C#N)C#N)C2=O)cc1 | > 200 µM | 49 µM | –
Cc1nc(N)c(N2CCN(Cc3ccccc3)CC2)c(=O)[nH]1 | > 200 µM | > 200 µM | –
